Data from ChEMBL document CHEMBL2029274, “Structure and property based design, synthesis and biological evaluation of γ-lactam based HDAC inhibitors: part II” (Bioorg Med Chem Lett, 2012).

Columns and labels:
PC-3 = assay: Antiproliferative activity against human PC3 cells; assay type: functional
[1] = Inhibition of HDAC by fluorescence assay
NUGC-3 = assay: Antiproliferative activity against human NUGC3 cells; assay type: functional
NCI-H23 = assay: Antiproliferative activity against human NCI-H23 cells; assay type: functional
HCT-15 = assay: Antiproliferative activity against human HCT15 cells; assay type: functional
ACHN = assay: Antiproliferative activity against human ACHN cells; assay type: functional
MDA-MB-231 = assay: Antiproliferative activity against human MDA-MB-231 cells; assay type: functional
[2] = Metabolic stability in mouse liver microsomes assessed as compound remaining at 1 uM after 30 mins in the presence of NADPH; assay type: ADME, Microsome; details: read-out: Stability
[3] = Chemical stability in buffer assessed as compound remaining at 1 uM after 30 mins; assay type: physicochemical; details: read-out: Stability
[4] = Metabolic stability in mouse liver microsomes assessed as compound remaining at 1 uM after 30 mins in the absence of NADPH; assay type: ADME, Microsome; details: read-out: Stability

SMILES	GI50 (PC-3) [nM]	IC50 [1] [nM]	GI50 (NCI-H23) [nM]	GI50 (HCT-15) [nM]	GI50 (ACHN) [nM]	GI50 (MDA-MB-231) [nM]	remaining at 0.5 h, 1 µM [2] [%]	remaining at 0.5 h, 1 µM [3] [%]	remaining at 0.5 h, 1 µM [4] [%]	GI50 (NUGC-3) [nM]
COc1ccc(CCN2CC=C(CCC(=O)NO)C2=O)cc1	3170	190	4020	> 10000	2380	1080	98.3	102	92	1420
O=C1CC2(CCCC2)CC(=O)N1CCCCN1CCN(c2ncccn2)CC1 [BUSPIRONE]	–	–	–	–	–	–	106	108	0.1	–
O=C(CCC1=CCN(Cc2ccccc2)C1=O)NO	4430	120	4290	5370	1080	990	–	–	–	–
COc1ccccc1CN1CC=C(CCC(=O)NO)C1=O	3560	> 10000	6130	> 10000	> 10000	6030	–	–	–	> 10000
COc1cccc(CCCN2CC=C(CCC(=O)NO)C2=O)c1	2590	160	1170	> 10000	2480	1880	–	–	–	3930
COc1ccccc1CCN1CC=C(CCC(=O)NO)C1=O	3510	130	4490	> 10000	2530	1500	–	–	–	2020
COc1ccccc1CCCN1CC=C(CCC(=O)NO)C1=O	3510	130	4490	> 10000	2530	1500	–	–	–	2020
O=C(CCC1=CCN(Cc2ccc(C(F)(F)F)cc2)C1=O)NO	4360	260	6640	4540	4290	3070	–	–	–	3230

Further compounds by falling IC50 [1], results first:

GI50 (PC-3) [nM]	IC50 [1] [nM]	GI50 (NCI-H23) [nM]	GI50 (HCT-15) [nM]	GI50 (ACHN) [nM]	GI50 (MDA-MB-231) [nM]	remaining at 0.5 h, 1 µM [2] [%]	remaining at 0.5 h, 1 µM [3] [%]	remaining at 0.5 h, 1 µM [4] [%]	SMILES	GI50 (NUGC-3) [nM]
3120	450	1640	1720	2480	1630	–	–	–	COc1ccc(CN2CC=C(CCC(=O)NO)C2=O)cc1	1110
3890	380	1970	2820	4430	1770	–	–	–	COc1cccc(CN2CC=C(CCC(=O)NO)C2=O)c1	1750
7000	270	2510	> 10000	4750	2560	–	–	–	COc1ccc(CCCN2CC=C(CCC(=O)NO)C2=O)cc1	5480
2590	160	1170	> 10000	2480	1880	–	–	–	COc1cccc(CCN2CC=C(CCC(=O)NO)C2=O)c1	3930
880	120	680	540	670	220	–	–	–	O=C(CCC1=CCN(Cc2cccc(C(F)(F)F)c2)C1=O)NO	160
2770	120	1110	6010	1170	2170	–	–	–	O=C(CCC1=CCN(CCc2cccc(C(F)(F)F)c2)C1=O)NO	920
–	120	–	–	–	990	82.9	96.7	85.5	O=C(CCC1=CCN(CCc2ccccc2)C1=O)NO	–
2380	70	1120	2200	2480	1170	75.9	102	73.9	O=C(CCC1=CCN(CCc2ccc(C(F)(F)F)cc2)C1=O)NO	1080
